In PubChem BioAssay (NCI):
Several values for one entry are separate records, joined by “and”; a condition that tells them apart may be missing. Equal entries are not always repeated.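 Method: 48-hour compound exposure of cells in 96-well plates, five concentrations, linear interpolation of endpoints. GI50 marks 50% less growth. TGI: total growth inhibition.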

How the values were obtained:
Experiment in all cases: DTP human tumour cell line panel, 48 h
[1] = system: 786-0 renal
[2] = system: A498 renal
[3] = system: A549 NSCLC
[4] = system: ACHN renal
[5] = system: BT-549 breast
[6] = system: CAKI-1 renal
[7] = system: COLO 205 colon
[8] = system: DU-145 prostate
[9] = system: EKVX NSCLC
[10] = system: HCC-2998 colon
[11] = system: HCT-116 colon
[12] = system: HCT-15 colon
[13] = system: HOP-62 NSCLC
[14] = system: HOP-92 NSCLC
[15] = system: HS 578T breast
[16] = system: HT29 colon
[17] = system: IGROV1 ovarian
[18] = system: KM12 colon
[19] = system: LOX IMVI melanoma
[20] = system: M14 melanoma
[21] = system: MALME-3M melanoma
[22] = system: MCF7 breast
[23] = system: MDA-MB-231 breast
[24] = system: MDA-MB-435
[25] = system: MOLT-4 leukemia
[26] = system: NCI-H226 lung
[27] = system: NCI-H23 lung
[28] = system: NCI-H460 lung
[29] = system: NCI-H522 lung
[30] = system: NCI/ADR-RES ovarian
[31] = system: OVCAR-3 ovarian
[32] = system: OVCAR-4 ovarian
[33] = system: OVCAR-5 ovarian
[34] = system: OVCAR-8 ovarian
[35] = system: PC-3 prostate
[36] = system: RPMI-8226 leukemia
[37] = system: RXF 393 renal
[38] = system: SF-268 CNS
[39] = system: SF-295 CNS
[40] = system: SF-539 CNS
[41] = system: SK-MEL-2 melanoma
[42] = system: SK-MEL-28 melanoma
[43] = system: SK-MEL-5 melanoma
[44] = system: SK-OV-3 ovarian
[45] = system: SN12C renal
[46] = system: SNB-19 CNS
[47] = system: SNB-75 CNS
[48] = system: SW-620 colon
[49] = system: T-47D breast
[50] = system: TK-10 renal
[51] = system: U251 CNS
[52] = system: UACC-257 melanoma
[53] = system: UACC-62 melanoma
[54] = system: UO-31 renal

Compound: COCCNCCc1cccc(Nc2ncc3c(n2)-c2ccccc2C(c2ccccc2F)C3)c1 (stereo not drawn)
- GI50 [1]: 1430 nM and 1760 nM
- TGI [1]: 2910 nM and 3300 nM
- GI50 [2]: 345 nM and 1610 nM
- TGI [2]: 1750 nM and 3140 nM
- GI50 [3]: 1780 nM and 1880 nM
- TGI [3]: 3330 nM and 3510 nM
- GI50 [4]: 1030 nM and 1050 nM
- TGI [4]: 2200 nM and 2230 nM
- GI50 [5]: 1550 nM and 7790 nM
- TGI [5]: 2950 nM and 25600 nM
- GI50 [6]: 1270 nM and 1260 nM
- TGI [6]: 2540 nM
- GI50 [7]: 1880 nM and 1920 nM
- TGI [7]: 3670 nM and 3630 nM
- GI50 [8]: 1530 nM and 1620 nM
- TGI [8]: 2980 nM and 3040 nM
- GI50 [9]: 1630 nM and 1920 nM
- TGI [9]: 3130 nM and 3510 nM
- GI50 [10]: 1770 nM and 2080 nM
- TGI [10]: 3280 nM and 3650 nM
- GI50 [11]: 1210 nM and 1660 nM
- TGI [11]: 2600 nM and 3120 nM
- GI50 [12]: 1190 nM and 1260 nM
- TGI [12]: 2560 nM and 2600 nM
- GI50 [13]: 1600 nM and 1710 nM
- TGI [13]: 3110 nM and 3300 nM
- GI50 [14]: 1020 nM and 1240 nM
- TGI [14]: 2270 nM and 2650 nM
- GI50 [15]: 1150 nM and 1270 nM
- TGI [15]: 3460 nM and 3790 nM
- GI50 [16]: 1120 nM and 1310 nM
- TGI [16]: 2360 nM and 2680 nM
- GI50 [17]: 1000 nM and 1210 nM
- TGI [17]: 2380 nM and 2750 nM
- GI50 [18]: 1770 nM and 1790 nM
- TGI [18]: 3430 nM and 3370 nM
- GI50 [19]: 1250 nM and 1230 nM
- TGI [19]: 2560 nM and 2500 nM
- GI50 [20]: 1560 nM and 1940 nM
- TGI [20]: 3060 nM and 3780 nM
- GI50 [21]: 1770 nM and 1870 nM
- TGI [21]: 3410 nM and 3540 nM
- GI50 [22]: 1580 nM and 1780 nM
- TGI [22]: 3400 nM and 3690 nM
- GI50 [23]: 1670 nM and 1450 nM
- TGI [23]: 3110 nM and 2840 nM
- GI50 [24]: 1750 nM and 1820 nM
- TGI [24]: 3250 nM and 3320 nM
- GI50 [25]: 1180 nM
- TGI [25]: 4150 nM
- GI50 [26]: 1310 nM and 1800 nM
- TGI [26]: 2940 nM and 3670 nM
- GI50 [27]: 1650 nM and 1750 nM
- TGI [27]: 3100 nM and 3320 nM
- GI50 [28]: 1330 nM and 1700 nM
- TGI [28]: 3080 nM and 3470 nM
- GI50 [29]: 1530 nM and 1520 nM
- TGI [29]: 2950 nM
- GI50 [30]: 1790 nM and 1760 nM
- TGI [30]: 3430 nM and 3450 nM
- GI50 [31]: 1760 nM and 1600 nM
- TGI [31]: 3480 nM and 3100 nM
- GI50 [32]: 1340 nM and 1720 nM
- TGI [32]: 2740 nM and 3180 nM
- GI50 [33]: 1420 nM and 1570 nM
- TGI [33]: 2760 nM and 3020 nM
- GI50 [34]: 1790 nM and 1870 nM
- TGI [34]: 3380 nM and 3900 nM
- GI50 [35]: 1490 nM and 1390 nM
- TGI [35]: 2890 nM and 2860 nM
- GI50 [36]: 1520 nM and 1740 nM
- TGI [36]: 3700 nM and 4230 nM
- GI50 [37]: 1110 nM and 1240 nM
- TGI [37]: 2390 nM and 2590 nM
- GI50 [38]: 1440 nM and 1640 nM
- TGI [38]: 3070 nM and 3190 nM
- GI50 [39]: 1720 nM and 1610 nM
- TGI [39]: 3110 nM and 2990 nM
- GI50 [40]: 1320 nM and 1500 nM
- TGI [40]: 2620 nM and 2860 nM
- GI50 [41]: 1710 nM and 1940 nM
- TGI [41]: 3190 nM and 3440 nM
- GI50 [42]: 1600 nM and 1760 nM
- TGI [42]: 2970 nM and 3180 nM
- GI50 [43]: 1650 nM
- TGI [43]: 3040 nM and 3030 nM
- GI50 [44]: 1710 nM and 2450 nM
- TGI [44]: 3140 nM and 6340 nM
- GI50 [45]: 1320 nM and 1040 nM
- TGI [45]: 2700 nM and 2340 nM
- GI50 [46]: 1750 nM and 1810 nM
- TGI [46]: 3180 nM and 3280 nM
- GI50 [47]: 1170 nM and 727 nM
- TGI [47]: 2480 nM and 2090 nM
- GI50 [48]: 2400 nM
- TGI [48]: 4630 nM
- GI50 [49]: 1760 nM and 1820 nM
- TGI [49]: 3600 nM and 3920 nM
- GI50 [50]: 1380 nM and 1600 nM
- TGI [50]: 2740 nM and 2980 nM
- GI50 [51]: 1240 nM and 1820 nM
- TGI [51]: 2570 nM and 3280 nM
- GI50 [52]: 2010 nM and 2150 nM
- TGI [52]: 3540 nM and 4050 nM
- GI50 [53]: 1720 nM and 1760 nM
- TGI [53]: 3120 nM and 3160 nM
- GI50 [54]: 685 nM and 1290 nM
- TGI [54]: 2060 nM and 2570 nM
